Assay results from patent US20250170147A1, “NEUROACTIVE STEROIDS FOR TREATMENT OF GASTROINTESTINAL DISEASES OR CONDITIONS” (Sage Therapeutics, Inc., priority 2022, published 2025).
“Also recorded” adds a separate entry of the source. Marks after values point to notes of the source that are not given here.

Assays:
[1] = tested on: patients with major depressive disorder; conditions: meta-analysis, cited from earlier work; for rates of gastrointestinal adverse reactions compared to placebo: 15 most commonly used antidepressants in MDD; for tolerability on the gastrointestinal tract among antidepressants: patients with MDD
[2] = clinical trials; meta-analysis; cited from earlier work
adults with MDD [3] = assay: Study NCT04476030: treatment-emergent adverse events (safety set); format: in vivo, human; conditions: for tolerability: zuranolone 50 mg once daily 14 days co-initiated with SOC ADT
Experimental: (§1) A randomized, double-blind, parallel-group, active/placebo-controlled study (NCT04476030) in participants with major depressive disorder (MDD) was conducted. The study evaluated the efficacy and safety of zuranolone 50 mg co-initiated with standard-of-care (SOC) antidepressant therapies (ADTs) (zuranolone+ADT) vs placebo co-initiated with SOC ADT (placebo+ADT) in adults with MDD. Patients were randomized 1:1 to once-daily, blinded zuranolone+ADT or placebo+ADT for 14 days then continued open-label SOC ADT for 28 more days.
An AE could therefore be any unfavorable and unintended sign (including an abnormal laboratory finding), symptom or disease temporally associated with the use of a medicinal (investigational) product whether or not related to the medicinal (investigational) product. In clinical studies, an AE could include an undesirable medical condition occurring at any time, including baseline or washout periods, even if no study treatment had been administered.
A treatment emergent adverse event (TEAE) was defined as an AE with onset after the start of investigational product (IP), or any worsening of a pre-existing medical condition/AE with onset after the start of IP and throughout the study. The term IP included any Sage IP, a comparator, or a placebo administered in a clinical study.
The investigator made the determination of relationship to the IP for each AE (not related, related). The following definitions should have been considered when evaluating the relationship of AEs and SAEs to the IP.

adults with MDD [4] = assay: Study NCT04476030: withdrawal symptoms by Physician Withdrawal Checklist (PWC-20); format: in vivo, human
Experimental: as §1
(§2) The proportion of patients who had suicidal ideation at any post baseline visit from Day 3 through Day 42 ranged from 4.8% to 11.7% in the zuranolone+ADT group and from 6.0% to 12.4% in the placebo+ADT group. No patients who received placebo+ADT experienced suicidal behavior.

adults with MDD [5] = assay: Study NCT04476030: suicidal ideation/behavior by C-SSRS; format: in vivo, human; conditions: compared to baseline
Experimental: as §1, §2

[6] = ADT continuation period, of 212
[7] = double blinded treatment period
[8] = double blinded treatment period, of 212
[9] = safety set n=212, listed as zuranolone+ADT
[10] = zuranolone 50 mg + ADT, safety set n=212, whole study

## COc1ccc2cccc(CCNC(C)=O)c2c1 [agomelatine]
[1]
  rates of gastrointestinal adverse reactions compared to placebo: higher rates

## CC(NC(C)(C)C)C(=O)c1cccc(Cl)c1 (stereo not shown) [bupropion]
[1]
  rates of gastrointestinal adverse reactions compared to placebo: higher rates

## CN(C)CCCC1(c2ccc(F)cc2)OCc2cc(C#N)ccc21 (stereo not shown) [citalopram]
[1]
  rates of gastrointestinal adverse reactions compared to placebo: higher rates

## CN(C)CC(c1ccc(O)cc1)C1(O)CCCCC1 (stereo not shown) [desvenlafaxine]
[1]
  rates of gastrointestinal adverse reactions compared to placebo: higher rates

## CNCC[C@H](Oc1cccc2ccccc12)c1cccs1 [duloxetine]
[1]
  rates of gastrointestinal adverse reactions compared to placebo: higher rates

## CN(C)CCC[C@@]1(c2ccc(F)cc2)OCc2cc(C#N)ccc21 [escitalopram]
[1]
  rates of gastrointestinal adverse reactions compared to placebo: higher rates
  tolerability on the gastrointestinal tract among antidepressants: least tolerated

## CNCCC(Oc1ccc(C(F)(F)F)cc1)c1ccccc1 (stereo not shown) [fluoxetine]
[1]
  rates of gastrointestinal adverse reactions compared to placebo: higher rates

## COCCCC/C(=N\OCCN)c1ccc(C(F)(F)F)cc1 [fluvoxamine]
[1]
  rates of gastrointestinal adverse reactions compared to placebo: higher rates

## CCN(CC)C(=O)[C@@]1(c2ccccc2)C[C@H]1CN [levomilnacipran]
[1]
  rates of gastrointestinal adverse reactions compared to placebo: higher rates

## CN1CCN2c3ncccc3Cc3ccccc3C2C1 (stereo not shown) [mirtazapine]
[1]
  rates of gastrointestinal adverse reactions compared to placebo: higher rates

## Fc1ccc([C@@H]2CCNC[C@H]2COc2ccc3c(c2)OCO3)cc1 [paroxetine]
[1]
  rates of gastrointestinal adverse reactions compared to placebo: higher rates

## CCOc1ccccc1OC(c1ccccc1)C1CNCCO1 (stereo not shown) [reboxetine]
[1]
  rates of gastrointestinal adverse reactions compared to placebo: higher rates

## CN[C@H]1CC[C@@H](c2ccc(Cl)c(Cl)c2)c2ccccc21 [sertraline]
[2]
  incidence of diarrhea compared to other SSRIs and venlafaxine: higher incidence of diarrhea
[1]
  rates of gastrointestinal adverse reactions compared to placebo: higher rates
  tolerability on the gastrointestinal tract among antidepressants: least tolerated

## COc1ccc(C(CN(C)C)C2(O)CCCCC2)cc1 (stereo not shown) [venlafaxine]
[2]
  rates of nausea and vomiting compared to SSRIs and duloxetine: higher rates of nausea and vomiting
[1]
  rates of gastrointestinal adverse reactions compared to placebo: higher rates

## Cc1ccc(Sc2ccccc2N2CCNCC2)c(C)c1 [vortioxetine]
[1]
  rates of gastrointestinal adverse reactions compared to placebo: higher rates

## zuranolone [Zuranolone + ADT]
Adults with MDD [3]; ADT continuation period
  Sexual Dysfunction TEAE, incidence: 0.9%
  Sleep Disorders TEAE, incidence: 3.8%
  TEAEs during the ADT continuation period, incidence: 31.6%
Adults with MDD [3]; [6]
  Sexual Dysfunction TEAE, number of patients: 2
  Sleep Disorders TEAE, number of patients: 8
  TEAEs during the ADT continuation period, number of patients: 67
Adults with MDD [3]; comparison with placebo+ADT
  incidence of gastrointestinal AEs (e.g., nausea, diarrhea) vs placebo+ADT: lower incidence
Adults with MDD [3]; [7]
  Sexual Dysfunction TEAE, incidence: 3.8%
  Sleep Disorders TEAE, incidence: 9.9%
Adults with MDD [3]; [8]
  Sexual Dysfunction TEAE, number of patients: 8
  Sleep Disorders TEAE, number of patients: 21
Adults with MDD [3]; double-blind treatment period
  TEAEs during the double-blind treatment period, incidence: 68.4%
Adults with MDD [3]; double-blind treatment period, of 212
  TEAEs during the double-blind treatment period, number of patients: 145
Adults with MDD [3]; safety set n=212
  Decreased Appetite TEAE, incidence: (5.7%)
  Decreased Appetite TEAE, number of patients: 12
  Diarrhea TEAE, incidence: (6.1%)
  Diarrhea TEAE, number of patients: 13
  Dizziness TEAE, number of patients: 28
  Dose reduction due to TEAE, incidence: (9.4%)
  Dose reduction due to TEAE, number of patients: 20
  Dry Mouth TEAE, incidence: (9.4%)
  Dry Mouth TEAE, number of patients: 20
  Fatigue TEAE, incidence: (8.5%)
  Fatigue TEAE, number of patients: 18
  Headache TEAE, number of patients: 25
  Insomnia TEAE, incidence: (9.9%)
  Insomnia TEAE, number of patients: 21
  Nausea TEAE, number of patients: 19
  Sedation TEAE, incidence: (5.7%)
  Sedation TEAE, number of patients: 12
  Serious AEs, incidence: (0.9%)^c
  Serious AEs, number of patients: 2
  Somnolence TEAE, number of patients: 39
  Study withdrawal due to TEAE, incidence: (5.2%)
  Study withdrawal due to TEAE, number of patients: 11
  TEAE maximum severity Mild, incidence: (35.8%)
  TEAE maximum severity Mild, number of patients: 76
  TEAE maximum severity Moderate, incidence: (34.4%)
  TEAE maximum severity Moderate, number of patients: 73
  TEAE maximum severity Severe, incidence: (3.8%)
  TEAE maximum severity Severe, number of patients: 8
  Treatment discontinuation due to TEAE, incidence: (6.6%)
  Treatment discontinuation due to TEAE, number of patients: 14
  Tremor TEAE, incidence: (5.2%)
  Tremor TEAE, number of patients: 11
Adults with MDD [3]; [9]
  Dizziness TEAE, incidence: 13.2%
  Headache TEAE, incidence: 14.7%
  Nausea TEAE, incidence: 9.0%
  Serious AEs, incidence: 0.9%
  Serious AEs, number of patients: Two
  Somnolence TEAE, incidence: 18.4%
Adults with MDD [3]; whole study
  Gastrointestinal disorder TEAE, incidence: 29.7%
  Sexual Dysfunction TEAE, incidence: 4.7%
  Sleep Disorders TEAE, incidence: 12.7%
Adults with MDD [3]; whole study, of 212
  Gastrointestinal disorder TEAE, number of patients: 63
  Sexual Dysfunction TEAE, number of patients: 10
  Sleep Disorders TEAE, number of patients: 27
Adults with MDD [3]; [10]
  Any TEAE, incidence: (74.1%)
  Any TEAE, number of patients: 157
Adults with MDD [3]; zuranolone 50 mg + ADT, safety set n=212, whole study, listed as zuranolone+ADT
  Any TEAE, incidence: 74.1%
Adults with MDD [3]
  tolerability: generally well-tolerated
Adults with MDD [3]; listed as zuranolone co-initiated with an SOC ADT
  tolerability: generally well tolerated
Adults with MDD [4]; Day 18
  mean decrease from baseline in PWC-20 total score: −0.6
Adults with MDD [4]; Day 21
  mean decrease from baseline in PWC-20 total score: −0.8
Adults with MDD [4]; after discontinuation
  withdrawal symptoms (PWC-20): No increases from baseline; also recorded: No signals for an evidence of withdrawal symptoms
Adults with MDD [5]
  suicidal ideation/behavior signals vs baseline (C-SSRS): No increases from baseline; also recorded: No signals for an increased suicidal ideation or suicidal behavior
